Article PMC12383012 (Antioxidants, 2025)
Entries after “also recorded” stand apart in the source; their conditions may differ. Like-named read-outs stand apart in the source and are kept apart here.

How the values were obtained:
[1] = radical scavenging, parent acid; read-out: AA EC50; cited from earlier work
[2] = target: T1, electric eel acetylcholinesterase (eeAChE) (Electrophorus electricus, UniProt O42275); experiment: Acetylcholinesterase inhibition (adapted Ellman's method); format: biochemical; settings: read-out: AChE Inhib IC50
T1 construct: purchased
Description: (§1) The enzyme inhibition of electric eel acetylcholinesterase (eeAChE) and equine butyrylcholinesterase (eqBChE) was performed according to an adaptation of Elmman’s method. Stock solutions of 1 mg of each compound in 1 mL MeOH were prepared, and adequate dilutions were further made for each ligand. A control measurement (5 replicates without a ligand) and a calibration curve of 5 points with 3 replicates per point were conducted. Each solution included fixed volumes of 4-(2-hydroxyethyl)-1-piperazine-ethanesulfonic acid (HEPES) and cholinesterase (eeAChE or eqBChE), with different volumes of ligand solution. A blank solution containing HEPES and MeOH was also prepared at the same time. After 15 min of reaction, […] (AChI) or butyrylcholine iodide (BChI) and 5,5’-dithiobis-(2-nitrobenzoic acid) (DTNB) were added to both solutions contained in spectrophotometer cuvettes, and the absorbance at 405 nm was recorded for 5 min (time interval = 1 s, slid width = 1 nm). The slope for each calibration point (absorbance versus reaction time) was determined, and the percent inhibition was calculated by using the equation: %Inhibition=100−(vi/v0×100). where vi is the reaction rate (slope) for each point of the calibration with the ligand, and v0 is the initial reaction rate (slope) for the control point (without ligand). Finally, the five-point linear regression (10–50 µL of ligand solution) corresponding to the percentage of enzyme inhibition vs. the compound concentration allowed for the determination of the half maximal inhibitory concentration (IC50, µM) (compound concentration for which enzyme activity is reduced to half). Experiments were performed twice for each ligand. Statistical analysis was performed by a one-way analysis of variance (ANOVA) with a significance threshold set at p < 0.05.

[3] = tested on: SH-SY5Y human neuroblastoma cell line; experiment: Protection against iron/ascorbate-induced toxicity (MTT); format: cell-based; settings: 1 h pre-treatment at highest nontoxic concentration, then 24 h with Fe/Asc
Description: (§2) Cell viability was assessed using the colorimetric MTT (3-(4,5-dimethylthiazol-2-yl)-2,5-diphenyltetrazolium bromide) assay, as previously described.
(§3) The compounds’ solutions (4AY1-6, 4BY1-3, and 4CY1) were prepared in DMSO to create stock solutions at a concentration of 25 mM, which were then stored at −20 °C. A concentration range from 0.5 µM to 20 µM was screened to identify the highest non-toxic dose. The SH-SY5Y human neuroblastoma cell line (ATCC-CRL-2266) was grown in Dulbecco’s modified Eagle’s medium (DMEM) (Thermo Fisher Scientific-Gibco, Waltham, MA, USA) supplemented with 10% heat-inactivated fetal calf serum, 50 U/mL penicillin, and 50 µg/mL streptomycin at 37 °C in a 5% CO2 atmosphere. The cells were seeded at a density of 0.1 × 10^6 cells/mL (when 48-well plates were used) or 0.15 × 10^6 cells/mL (when 24-well plates were used) one day before the experiment commenced. Following the seeding, the cells were treated with the selected concentrations of compounds for 24 h. After treatment, the cells were washed with PBS and incubated with 150 µL (in 48-well plates) or 200 µL (in 24-well plates) of MTT (0.5 mg/mL) for 2 h at 37 °C with 5% CO2. During this incubation, cellular dehydrogenases converted MTT into formazan crystals, which were subsequently dissolved in 150 µL (in 48-well plates) or 200 µL (in 24-well plates) of 0.04 M HCl/isopropanol, and the absorbance was measured at 570 nm.
To evaluate the compounds’ protective effects against toxicity induced by Aβ1–42 or iron/ascorbate, the cells were pre-treated with each compound for one hour before adding Aβ1–42 or iron/ascorbate, followed by an additional 24-h incubation. Aβ1–42 (Bachem, Torrance, CA, USA) was prepared in sterile water to create a 443 µM stock solution and was added to the cells at a final concentration of 1 µM. Ferrous sulfate and L-ascorbic acid (Sigma Chemical Co., St. Louis, MO, USA) were introduced into the medium at final concentrations of 5 mM and 2.5 mM, respectively. […]

[4] = target: T2, equine butyrylcholinesterase (eqBChE) (Equus caballus, UniProt P81908); experiment: Butyrylcholinesterase inhibition (adapted Ellman's method); format: biochemical
T2 construct: purchased
Description: as §1

Aβ1–42 = target: T3, Aβ1–42 (Homo sapiens, UniProt P05067); experiment: Inhibition of Aβ1–42 self-aggregation (ThT fluorescence); format: biochemical; settings: read-out: % Aβ42 Self-Agg Inhib
T3 construct: the Aβ1–42 peptide (Shanghai Royobiotech Co., Ltd., Shanghai, China); purchased Shanghai Royobiotech Co., Ltd
Description: Firstly, the Aβ1–42 peptide (Shanghai Royobiotech Co., Ltd., Shanghai, China) was treated with 1,1,1,3,3,3-hexafluoropropan-2-ol (HFIP) and then dissolved in a CH3CN/Na2CO3 (300 μM)/NaOH (250 μM) (48.3:48.3:4.3, v/v/v) mixture in order to obtain a stable stock solution (500 μM).
Solutions of 1 mg of the assayed compounds in 2 mL of 1:1 (v/v) DMSO/MeOH (0.5 mg/mL) medium were prepared and then properly diluted with phosphate buffer (0.215 M, pH 8.0) to obtain a 120 μM final concentration. The Aβ1–42 self-aggregation inhibition assays were made based on a reported method, involving the fluorescence emission of thioflavin T (ThT). So, Aβ1–42 (40 μM) was incubated at 37 °C for 24 h in phosphate buffer and in the presence or absence of each ligand (40 μM for all compounds but 4AY4 and 4CY1, for which 20 μM was used). Then, […] 5 μM ThT in 50 mM glycine-NaOH (pH 8.5) buffer were added to each sample before transferring the samples to a 96-well microplate. Blank samples were also prepared without Aβ1–42. The ThT fluorescence was measured (446 and 485 nm excitation and emission wavelengths, respectively), and the percent of self-aggregation inhibition was determined by the equation:I% = 100 − (IFi/IF0 × 100) where IFi and IF0 are the fluorescence intensities, in the presence and the absence of the assayed compound, subtracted from the fluorescence intensities due to the respective blanks. The calculated values were obtained as the mean ± SEM of four different experiments conducted in duplicate. Statistical analysis was performed by a one-way analysis of variance (ANOVA) with a significance threshold set at p < 0.05.

[5] = Free-radical-scavenging assay (DPPH method)
Description: The percentage of radical-scavenging activity (%AA, antioxidant capacity) of the RIV hybrids was first determined by the 2,2-diphenyl-1-picrylhydrazyl (DPPH) method using a compound concentration of 100 μM. […] Each calibration point was kept 30 min in darkness, and afterwards, the absorbance was measured at 517 nm. The corresponding antioxidant activity (%AA) was calculated using the equation %AA=ADPPH−Aligand/ADPPH×100. From the plot of %AA versus ligand concentration, EC50 was determined. Three independent experiments were performed, and a statistical analysis was conducted by a one-way analysis of variance (ANOVA) with the significance threshold set at p < 0.05.
The RIV hybrids were screened for their radical-scavenging activity by using the DPPH method. These assays were conducted in two stages: first, preliminary analyses were performed for all the compounds to evaluate the percentage of radical-scavenging activity by using a compound concentration of 100 μM. Afterwards, the compounds showing more than 50% antioxidant activity (AA), under those conditions, were further assessed to evaluate the respective EC50 values.

[6] = tested on: SH-SY5Y human neuroblastoma cell line; experiment: Cell viability dose-response screening (MTT); format: cell-based; settings: 24 h
Description: as §2, §3

T2 sequence (P81908 whole entry): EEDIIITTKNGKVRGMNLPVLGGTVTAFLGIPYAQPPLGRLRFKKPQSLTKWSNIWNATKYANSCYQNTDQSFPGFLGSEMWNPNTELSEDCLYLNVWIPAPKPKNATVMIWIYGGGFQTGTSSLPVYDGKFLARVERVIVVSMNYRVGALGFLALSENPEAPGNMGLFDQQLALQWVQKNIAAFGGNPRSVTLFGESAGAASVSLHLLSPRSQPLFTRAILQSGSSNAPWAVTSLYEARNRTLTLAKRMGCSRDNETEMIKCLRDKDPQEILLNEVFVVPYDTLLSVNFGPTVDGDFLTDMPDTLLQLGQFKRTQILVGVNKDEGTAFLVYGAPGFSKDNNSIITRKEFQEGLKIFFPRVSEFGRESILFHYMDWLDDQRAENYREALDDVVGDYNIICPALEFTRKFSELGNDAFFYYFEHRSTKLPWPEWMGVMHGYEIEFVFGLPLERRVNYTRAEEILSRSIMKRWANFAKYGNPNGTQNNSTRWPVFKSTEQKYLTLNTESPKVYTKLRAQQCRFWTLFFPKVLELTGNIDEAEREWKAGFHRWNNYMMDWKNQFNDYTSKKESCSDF
T1 sequence (O42275 24-633): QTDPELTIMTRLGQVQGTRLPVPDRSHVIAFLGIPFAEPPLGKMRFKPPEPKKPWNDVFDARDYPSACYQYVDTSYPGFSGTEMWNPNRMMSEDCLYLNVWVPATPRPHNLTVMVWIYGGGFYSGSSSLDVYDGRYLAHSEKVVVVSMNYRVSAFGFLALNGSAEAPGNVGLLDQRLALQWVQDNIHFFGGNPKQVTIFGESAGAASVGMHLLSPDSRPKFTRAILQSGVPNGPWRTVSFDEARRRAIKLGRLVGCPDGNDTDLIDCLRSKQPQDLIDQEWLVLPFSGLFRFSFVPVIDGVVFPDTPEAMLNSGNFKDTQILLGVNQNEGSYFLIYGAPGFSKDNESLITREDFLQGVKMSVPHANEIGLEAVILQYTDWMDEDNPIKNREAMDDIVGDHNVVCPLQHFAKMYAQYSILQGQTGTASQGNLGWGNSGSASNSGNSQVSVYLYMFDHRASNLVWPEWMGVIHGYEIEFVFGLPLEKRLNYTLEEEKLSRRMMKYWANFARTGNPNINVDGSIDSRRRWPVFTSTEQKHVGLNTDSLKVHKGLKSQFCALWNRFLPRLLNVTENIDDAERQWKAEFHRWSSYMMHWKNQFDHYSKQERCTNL
T3 sequence (P05067 672-713): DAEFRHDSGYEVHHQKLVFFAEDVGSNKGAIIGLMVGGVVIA

| Structure (SMILES) | EC50 [1] [µM] | IC50 [2] [µM] | rescue of cell viability after iron/ascorbate treatment [3] | SI (selectivity index) ([4]; SI = IC50 (AChE)/IC50 (BChE)) | IC50 ([4]; eqBChE, read-out: BChE Inhib IC50) [µM] | inhibition at 40 µM (Aβ1–42) [%] | % AA (radical-scavenging activity) ([5]; compound concentration 100 μM) [%] | EC50 ([5]; read-out: AA EC50) [µM] | highest nontoxic concentration ([6]; dose given for the Aβ1–42 experiments) [µM] | highest nontoxic concentration ([6]; dose given for the iron/ascorbate experiments) [µM] |
| --- | --- | --- | --- | --- | --- | --- | --- | --- | --- | --- |
| O=C(O)/C=C/C=C/c1ccc(O)c(O)c1 [(2E,4E)-5-(3,4-dihydroxyphenyl)penta-2,4-dienoic acid] | 18.2 ± 0.2 | – | – | – | – | – | – | – | – | – |
| O=C(O)C=Cc1ccc(O)c(O)c1 [caffeic acid, 3,4-dihydroxycinnamic acid] | 21.7 ± 0.2 | – | – | – | – | – | – | – | – | – |
| CCN(C)C(=O)Oc1cccc(NC(=O)C2(C)CCc3c(C)c(O)c(C)c(C)c3O2)c1 (centres unmarked) [4AY2, 3-(6-Hydroxy-2,5,7,8-tetramethylchromane-2-carboxamido)phenyl ethyl(methyl)carbamate] | – | 69 ± 7 | capable of rescuing the cell viability; also recorded: significantly improved cell viability | 1.9 | 36 ± 3 | 45 ± 4 | 95 ± 3 | 18.1 ± 0.4 | 1 | 2.5 |
